The record followed here is US20220009931A1, “NOVEL UREA 6,7-DIHYDRO-4H-PYRAZOLO[1,5-A]PYRAZINES ACTIVE AGAINST THE HEPATITIS B VIRUS (HBV)” (AICURIS GMBH & CO. KG, priority 2018, published 2022).

In the assay the test system is HBV. Particulars: Hepatitis B virus, HePAD38, 144 h, read-out: Cell Activity.
On to `O=C(Nc1ccc(F)c(Cl)c1)N1CCn2nc(NC3CCOC3)cc2C1` (stereo not shown) [Example 1, N-(3-chloro-4-fluorophenyl)-2-[(oxolan-3-yl)amino]-4H,5H,6H,7H-pyrazolo[1,5-a]pyrazine-5-carboxamide], for which the EC50 fell in the range of 1 to 10 µM. Then `O=C(Nc1ccc(F)c(Cl)c1)N1CCn2nc(NC3CCC(O)CC3)cc2C1` (stereo not shown) [Example 2, N-(3-chloro-4-fluorophenyl)-2-[(4-hydroxycyclohexyl)amino]-4H,5H,6H,7H-pyrazolo[1,5-a]pyrazine-5-carboxamide], with less than 1 µM; and `CC1Cn2nc(NC(=O)C3CCOC3)cc2CN1C(=O)Nc1ccc(F)c(Cl)c1` (stereo not shown) [Example 3, N-(3-chloro-4-fluorophenyl)-6-methyl-2-(oxolane-3-amido)-4H,5H,6H,7H-pyrazolo[1,5-a]pyrazine-5-carboxamide], with less than 1 µM.

In the case of `CC1Cn2nc(NCC3CCOC3)cc2CN1C(=O)Nc1ccc(F)c(Cl)c1` (stereo not shown) [Example 4], the EC50 lay in the range of 1 to 10 µM. As for `CC(=O)Nc1cc2n(n1)CCN(C(=O)Nc1ccc(F)c(Cl)c1)C2` [Example 5, N-(3-chloro-4-fluorophenyl)-2-acetamido-4H,5H,6H,7H-pyrazolo[1,5-a]pyrazine-5-carboxamide], the EC50 is less than 1 µM. In the case of `O=C(Nc1ccc(F)c(Cl)c1)N1CCn2nc(NCC3CCOCC3)cc2C1` [Example 6, N-(3-chloro-4-fluorophenyl)-2-{[(oxan-4-yl)methyl]amino}-4H,5H,6H,7H-pyrazolo[1,5-a]pyrazine-5-carboxamide], the EC50 lay in the range of 1 to 10 µM. Then `CC1Cn2nc(N)cc2CN1C(=O)Nc1ccc(F)c(Cl)c1` (stereo not shown) [Example 7, 2-amino-N-(3-chloro-4-fluorophenyl)-6-methyl-4H,5H,6H,7H-pyrazolo[1,5-a]pyrazine-5-carboxamide], with 1 to 10 µM; and `O=C(Nc1cc2n(n1)CCN(C(=O)Nc1ccc(F)c(Cl)c1)C2)C1CCOCC1` [Example 8, N-(3-chloro-4-fluorophenyl)-2-(oxane-4-amido)-4H,5H,6H,7H-pyrazolo[1,5-a]pyrazine-5-carboxamide], with less than 1 µM; and `O=C(Nc1cc2n(n1)CCN(C(=O)Nc1ccc(F)c(Cl)c1)C2)C1CCOC1` (stereo not shown) [Example 9, N-(3-chloro-4-fluorophenyl)-2-(oxolane-3-amido)-4H,5H,6H,7H-pyrazolo[1,5-a]pyrazine-5-carboxamide], with less than 1 µM.

With `O=C(Nc1ccc(F)c(Cl)c1)N1CCn2nc(NCC3CCOC3)cc2C1` (stereo not shown) [Example 10, N-(3-chloro-4-fluorophenyl)-2-{[(oxolan-3-yl)methyl]amino}-4H,5H,6H,7H-pyrazolo[1,5-a]pyrazine-5-carboxamide], the EC50 was in the range of 1 to 10 µM.

Turning to `COCC1(S(=O)(=O)Nc2cc3n(n2)CCN(C(=O)Nc2ccc(F)c(Cl)c2)C3)CC1` [Example 11, N-(3-chloro-4-fluorophenyl)-2-[1-(methoxymethyl)cyclopropanesulfonamido]-4H,5H,6H,7H-pyrazolo[1,5-a]pyrazine-5-carboxamide], the EC50 is less than 1 µM.

Consider `O=C(Nc1ccc(F)c(Cl)c1)N1CCn2nc(NS(=O)(=O)C3CC3)cc2C1` [Example 12, N-(3-chloro-4-fluorophenyl)-2-cyclopropanesulfonamido-4H,5H,6H,7H-pyrazolo[1,5-a]pyrazine-5-carboxamide], for which the EC50 is less than 1 µM. Regarding `O=C(Nc1ccc(F)c(Cl)c1)N1CCn2nc(NS(=O)(=O)C3(CO)CC3)cc2C1` [Example 13, N-(3-chloro-4-fluorophenyl)-2-[1-(hydroxymethyl)cyclopropanesulfonamido]-4H,5H,6H,7H-pyrazolo[1,5-a]pyrazine-5-carboxamide], the EC50 is less than 1 µM. In the case of `O=C(Nc1ccc(F)cc1)N1CCn2nc(NS(=O)(=O)C3(CO)CC3)cc2C1` [Example 14, N-(4-fluorophenyl)-2-[1-(hydroxymethyl)cyclopropanesulfonamido]-4H,5H,6H,7H-pyrazolo[1,5-a]pyrazine-5-carboxamide] it was less than 100 µM; in that of `COCC1(CNc2cc3n(n2)CCN(C(=O)Nc2ccc(F)c(Cl)c2)C3)CC1` [Example 15, N-(3-chloro-4-fluorophenyl)-2-({[1-(methoxymethyl)cyclopropyl]methyl}amino)-4H,5H,6H,7H-pyrazolo[1,5-a]pyrazine-5-carboxamide], less than 1 µM. Then `O=C(Nc1ccc(F)c(Cl)c1)N1CCn2nc(NCC3CCCOC3)cc2C1` (stereo not shown) [Example 16, N-(3-chloro-4-fluorophenyl)-2-{[(oxan-3-yl)methyl]amino}-4H,5H,6H,7H-pyrazolo[1,5-a]pyrazine-5-carboxamide], with 1 to 10 µM; and `CC(C)(CO)CNc1cc2n(n1)CCN(C(=O)Nc1ccc(F)c(Cl)c1)C2` [Example 17, N-(3-chloro-4-fluorophenyl)-2-[(3-hydroxy-2,2-dimethylpropyl)amino]-4H,5H,6H,7H-pyrazolo[1,5-a]pyrazine-5-carboxamide], with less than 1 µM. For the molecule `COC1(CNc2cc3n(n2)CCN(C(=O)Nc2ccc(F)c(Cl)c2)C3)CCC1` [Example 18, N-(3-chloro-4-fluorophenyl)-2-{[(1-methoxycyclobutyl)methyl]amino}-4H,5H,6H,7H-pyrazolo[1,5-a]pyrazine-5-carboxamide], the EC50 was less than 1 µM. Take `COC1CCC(Nc2cc3n(n2)CCN(C(=O)Nc2ccc(F)c(Cl)c2)C3)CC1` (stereo not shown) [Example 19, N-(3-chloro-4-fluorophenyl)-2-[(4-methoxycyclohexyl)amino]-4H,5H,6H,7H-pyrazolo[1,5-a]pyrazine-5-carboxamide]: the EC50 is less than 1 µM. With `CC1(CNc2cc3n(n2)CCN(C(=O)Nc2ccc(F)c(Cl)c2)C3)CCOC1` (stereo not shown) [Example 20, N-(3-chloro-4-fluorophenyl)-2-{[(3-methyloxolan-3-yl)methyl]amino}-4H,5H,6H,7H-pyrazolo[1,5-a]pyrazine-5-carboxamide], the EC50 is less than 1 µM. As to `O=C(Nc1ccc(F)c(Cl)c1)N1CCn2nc(NCC3(CO)CCC3)cc2C1` [Example 21, N-(3-chloro-4-fluorophenyl)-2-({[1-(hydroxymethyl)cyclobutyl]methyl}amino)-4H,5H,6H,7H-pyrazolo[1,5-a]pyrazine-5-carboxamide], the EC50 is less than 1 µM.

As to `CCC(C)(CO)CNc1cc2n(n1)CCN(C(=O)Nc1ccc(F)c(Cl)c1)C2` (stereo not shown) [Example 22, N-(3-chloro-4-fluorophenyl)-2-[(2-ethyl-3-hydroxy-2-methylpropyl)amino]-4H,5H,6H,7H-pyrazolo[1,5-a]pyrazine-5-carboxamide], the EC50 is less than 1 µM. On to `CC(CO)CNc1cc2n(n1)CCN(C(=O)Nc1ccc(F)c(Cl)c1)C2` (stereo not shown) [Example 23, N-(3-chloro-4-fluorophenyl)-2-[(3-hydroxy-2-methylpropyl)amino]-4H,5H,6H,7H-pyrazolo[1,5-a]pyrazine-5-carboxamide], for which the EC50 is 1 to 10 µM. In the case of `CC(C)OC1(CNc2cc3n(n2)CCN(C(=O)Nc2ccc(F)c(Cl)c2)C3)CCC1` [Example 24, N-(3-chloro-4-fluorophenyl)-2-({[1-(propan-2-yloxy)cyclobutyl]methyl}amino)-4H,5H,6H,7H-pyrazolo[1,5-a]pyrazine-5-carboxamide] it was 1 to 10 µM. Then `COC1(CNc2cc3n(n2)CCN(C(=O)Nc2ccc(F)c(Cl)c2)C3)CCOC1` (stereo not shown) [Example 25, N-(3-chloro-4-fluorophenyl)-2-{[(3-methoxyoxolan-3-yl)methyl]amino}-4H,5H,6H,7H-pyrazolo[1,5-a]pyrazine-5-carboxamide], with 1 to 10 µM; and `CC(Nc1cc2n(n1)CCN(C(=O)Nc1ccc(F)c(Cl)c1)C2)C1CCOC1` (stereo not shown) [Example 26, N-(3-chloro-4-fluorophenyl)-2-{[1-(oxolan-3-yl)ethyl]amino}-4H,5H,6H,7H-pyrazolo[1,5-a]pyrazine-5-carboxamide], with 1 to 10 µM; and `O=C(Nc1ccc(F)c(Cl)c1)N1CCn2nc(NC3(c4ccccc4)CC3)cc2C1` [Example 27, N-(3-chloro-4-fluorophenyl)-2-[(1-phenylcyclopropyl)amino]-4H,5H,6H,7H-pyrazolo[1,5-a]pyrazine-5-carboxamide], with less than 1 µM. Then `O=C(Nc1cc2n(n1)CCN(C(=O)Nc1ccc(F)c(Cl)c1)C2)C1CCN(c2ccncc2)CC1` [Example 28, N-{5-[(3-chloro-4-fluorophenyl)carbamoyl]-4H,5H,6H,7H-pyrazolo[1,5-a]pyrazin-2-yl}-1-(pyridin-4-yl)piperidine-4-carboxamide], with less than 1 µM; and `O=C(Nc1cc2n(n1)CCN(C(=O)Nc1ccc(F)c(Cl)c1)C2)C1CCNC(C(F)(F)F)C1` (stereo not shown) [Example 29, N-{5-[(3-chloro-4-fluorophenyl)carbamoyl]-4H,5H,6H,7H-pyrazolo[1,5-a]pyrazin-2-yl}-2-(trifluoromethyl)piperidine-4-carboxamide], with less than 1 µM. Consider `COC(=O)N1CCC(C(=O)Nc2cc3n(n2)CCN(C(=O)Nc2ccc(F)c(Cl)c2)C3)CC1` [Example 30, methyl 4-({5-[(3-chloro-4-fluorophenyl)carbamoyl]-4H,5H,6H,7H-pyrazolo[1,5-a]pyrazin-2-yl}carbamoyl)piperidine-1-carboxylate], for which the EC50 is less than 1 µM. Consider `O=C(Nc1cc2n(n1)CCN(C(=O)Nc1ccc(F)c(Cl)c1)C2)C1CCN(C2CC2)CC1` [Example 31, N-{5-[(3-chloro-4-fluorophenyl)carbamoyl]-4H,5H,6H,7H-pyrazolo[1,5-a]pyrazin-2-yl}-1-cyclopropylpiperidine-4-carboxamide], for which the EC50 is less than 1 µM.

As to `O=C(Nc1ccc(F)c(Cl)c1)N1CCn2nc(NC3(CO)CCC3)cc2C1` [Example 32, N-(3-chloro-4-fluorophenyl)-2-{[1-(hydroxymethyl)cyclobutyl]amino}-4H,5H,6H,7H-pyrazolo[1,5-a]pyrazine-5-carboxamide], the EC50 is less than 1 µM. For the molecule `O=C(Nc1ccc(F)c(Cl)c1)N1CCn2nc(NCC3(O)CCC3)cc2C1` [Example 33, N-(3-chloro-4-fluorophenyl)-2-{[(1-hydroxycyclobutyl)methyl]amino}-4H,5H,6H,7H-pyrazolo[1,5-a]pyrazine-5-carboxamide], the EC50 was less than 1 µM. For `O=C(Nc1ccc(F)c(Cl)c1)N1CCn2nc(N[C@@H]3CCC[C@H](O)C3)cc2C1` [Example 34, N-(3-chloro-4-fluorophenyl)-2-{[(1R,3S)-3-hydroxycyclohexyl]amino}-4H,5H,6H,7H-pyrazolo[1,5-a]pyrazine-5-carboxamide], the EC50 lay within 1 to 10 µM.
